Patent US6974870B2, “Substituted 3-amino-thieno [2,3-b]pyridine-2-carboxylic acid amide compounds and processes for preparing and their uses” (Boehringer Ingelheim Phamaceuticals, Inc., priority 2002, dated 2005)

Key:
human IKKα = target: T1, human IKKα (Homo sapiens, UniProt O15111); assay: IKKα kinase inhibition assay (phosphorylation of IκBα substrate, 33P-ATP); type: biochemical; details: flag-tagged human IKKα 3.6 μg/ml, GST-IκBα (1-54) 245 μg/ml, 250 nM ATP, 1 hour at 25° C.
T1 construct: FLAG (N)
T1 sequence (O15111 1-745): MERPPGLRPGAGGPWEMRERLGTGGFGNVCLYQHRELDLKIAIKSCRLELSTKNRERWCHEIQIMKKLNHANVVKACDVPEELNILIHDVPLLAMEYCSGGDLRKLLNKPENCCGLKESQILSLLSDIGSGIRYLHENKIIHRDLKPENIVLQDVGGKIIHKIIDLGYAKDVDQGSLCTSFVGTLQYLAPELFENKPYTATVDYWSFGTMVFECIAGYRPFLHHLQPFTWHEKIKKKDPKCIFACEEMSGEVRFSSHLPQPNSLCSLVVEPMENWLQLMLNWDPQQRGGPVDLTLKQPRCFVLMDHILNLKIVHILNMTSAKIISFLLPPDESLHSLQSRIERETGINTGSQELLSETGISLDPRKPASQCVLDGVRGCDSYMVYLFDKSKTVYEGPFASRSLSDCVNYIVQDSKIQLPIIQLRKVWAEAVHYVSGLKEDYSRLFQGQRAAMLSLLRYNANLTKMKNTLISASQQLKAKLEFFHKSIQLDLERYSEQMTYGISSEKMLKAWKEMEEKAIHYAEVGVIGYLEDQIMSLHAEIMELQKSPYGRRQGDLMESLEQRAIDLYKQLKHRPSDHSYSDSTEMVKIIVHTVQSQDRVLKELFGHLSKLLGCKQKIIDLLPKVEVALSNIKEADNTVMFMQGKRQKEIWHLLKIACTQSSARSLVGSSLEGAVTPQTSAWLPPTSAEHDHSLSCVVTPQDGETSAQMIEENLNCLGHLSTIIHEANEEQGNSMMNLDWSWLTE
Protocol: The inhibition of IKKα and IKKβ by the compounds of the present invention was determined with the following assay that measures the phosphorylation of the IκBα substrate by the respective kinases. The enzymes used in the assay were N-terminally flag-tagged versions of the human IKKβ or IKKα and the substrate was a GST fusion protein with IκBα (amino acids 1-54).
The reaction mixtures (60 μl) contained 20 mM HEPES pH 7.5, 10 mM MgCl2, 2 mM MnCl2, 100 mM NaCl, 100 μM Na3VO4, 20 mM β-glycerophosphate, 1 mM DTT, 2% DMSO, 250 nM ATP, 0.4 nM [^33P]ATP (specific activity, 3000 Ci/mmol), IκBα substrate, IKK enzyme and test compound. The reaction mixtures contained either 3.6 μg/ml IKKα and 245 μg/ml IκBα or 0.9 μg/ml IKKβ and 53 μg/ml IκBα.
Reactions were initiated by adding a solution of IκBα substrate and ATP to polypropylene plates containing IKK enzyme that was pre-incubated for 5 minutes with test compound. Then the reaction mixtures were incubated for 1 hour at 25° C., placed on ice and quenched by the addition of 150 μl 10% trichloroacetic acid and 5% disodium pyrophosphate. After mixing, the entire contents of the quenched reaction mixtures were transferred to a pre-wetted Packard UniFilter filtration plate, aspirated and washed 6 times with 250 μl of ddH2O using the Packard Filtermate Harvester. Filtration plates were then air dried, supplemented with 40 μl of Microscint 20 scintillation fluid and the ^33P-labeled reaction products were quantified using the Packard TopCount scintillation counter.
Compounds were tested in three-fold serial dilutions and inhibitor concentrations to achieve 50% inhibition of enzyme activity (i.e., IC50) were derived from dose-reponse curves using SAS software (SAS Institute, Cary N.C.). A non-linear regression analysis based on the Hill equation was applied to the percent inhibition versus concentration data. In all cases, compound concentrations were verified by HPLC.

human IKKβ = target: T2, human IKKβ (Homo sapiens, UniProt O14920); assay: IKKβ kinase inhibition assay (phosphorylation of IκBα substrate, 33P-ATP); type: biochemical; details: flag-tagged human IKKβ 0.9 μg/ml, GST-IκBα (1-54) 53 μg/ml, 250 nM ATP, 1 hour at 25° C.
T2 construct: FLAG (N)
T2 sequence (O14920 1-756): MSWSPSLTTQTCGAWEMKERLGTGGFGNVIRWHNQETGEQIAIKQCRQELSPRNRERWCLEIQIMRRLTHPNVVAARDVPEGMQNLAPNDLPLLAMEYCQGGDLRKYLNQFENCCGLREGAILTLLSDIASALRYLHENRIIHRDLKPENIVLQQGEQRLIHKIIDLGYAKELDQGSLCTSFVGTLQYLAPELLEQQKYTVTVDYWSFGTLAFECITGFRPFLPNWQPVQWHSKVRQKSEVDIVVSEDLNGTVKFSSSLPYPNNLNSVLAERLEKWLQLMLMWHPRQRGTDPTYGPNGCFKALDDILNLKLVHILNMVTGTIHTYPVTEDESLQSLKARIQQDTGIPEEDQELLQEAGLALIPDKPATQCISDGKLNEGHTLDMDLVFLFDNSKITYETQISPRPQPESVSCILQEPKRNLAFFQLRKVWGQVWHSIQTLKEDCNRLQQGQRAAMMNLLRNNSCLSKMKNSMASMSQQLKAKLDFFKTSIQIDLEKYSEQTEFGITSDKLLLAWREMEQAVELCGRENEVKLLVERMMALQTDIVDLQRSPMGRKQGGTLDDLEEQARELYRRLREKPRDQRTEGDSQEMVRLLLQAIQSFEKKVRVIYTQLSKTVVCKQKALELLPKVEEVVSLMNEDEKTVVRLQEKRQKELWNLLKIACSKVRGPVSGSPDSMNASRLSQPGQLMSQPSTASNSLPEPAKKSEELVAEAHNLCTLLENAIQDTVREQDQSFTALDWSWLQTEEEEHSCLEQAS
How it was run: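 N-terminally Flag-tagged human IKKα (3.6 μg/ml) or IKKβ (0.9 μg/ml) phosphorylating GST-IκBα(1-54) (245 or 53 μg/ml respectively), 250 nM ATP plus [33P]ATP, pH 7.5 HEPES with Mg2+/Mn2+, 2% DMSO; 5 min compound preincubation, 1 h at 25 °C.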

Structure (SMILES) | IC50 (human IKKα) | IC50 (human IKKβ) | melting point
CNC1CCN(c2cc(SC)c3c(N)c(C(N)=O)sc3n2)CC1 [3-Amino-6-(4-methylamino-piperidin-1-yl)-4-methylsulfanyl-thieno[2,3-b]pyridine-2-carboxylic acid amide] | ≤ 10 µM | < 1 µM | –
CNC1CCN(c2cc(C(F)(F)F)c3c(N)c(C(N)=O)sc3n2)CC1 [3-Amino-6-(4-methylamino-piperidin-1-yl)-4-trifluoromethyl-thieno[2,3-b]pyridine-2-carboxylic acid amide] | ≤ 10 µM | < 1 µM | –
CCCc1cc(N2CCC(NCC(O)c3ccc(-c4nccn4C)cc3)CC2)nc2sc(C(N)=O)c(N)c12 (stereo not shown) [3-Amino-6-(4-{2-hydroxy-2-[4-(1-methyl-1H-imidazol-2-yl)-phenyl]-ethylamino}-piperidin-1-yl)-4-propyl-thieno[2,3-b] pyridine-2-carboxylic acid amide] | ≤ 10 µM | < 1 µM | –
CCCc1cc(N2CCC(NCC(=O)N3CCC(O)CC3)CC2)nc2sc(C(N)=O)c(N)c12 [3-Amino-6-{4-[2-(4-hydroxy-piperidin-1-yl)-2-oxo-ethylamino]-piperidin-1-yl}-4-propyl-thieno[2,3-b] pyridine-2-carboxylic acid amide] | ≤ 10 µM | < 1 µM | –
CCCc1cc(N2CCC(NCC(O)c3ccc(-n4ccnc4)cc3)CC2)nc2sc(C(N)=O)c(N)c12 (stereo not shown) [3-Amino-6-{4-[2-hydroxy-2-(4-imidazol-1-yl-phenyl)-ethylamino]-piperidin-1-yl}-4-propyl-thieno[2,3-b] pyridine-2-carboxylic acid amide] | ≤ 10 µM | < 1 µM | –
NC(=O)c1sc2nc(N3CCC(NCC(O)c4ccc(-c5cnccn5)cc4)CC3)cc(C(F)(F)F)c2c1N (stereo not shown) [3-Amino-6-{4-[2-hydroxy-2-(4-pyrazin-2-yl-phenyl)-ethylamino]-piperidin-1-yl}-4-trifluoromethyl-thieno[2,3-b]pyridine-2-carboxylic acid amide] | ≤ 10 µM | < 1 µM | –
CCCc1cc(N2CCC(NCC(O)c3ccc(-c4cccnc4)cc3)CC2)nc2sc(C(N)=O)c(N)c12 (stereo not shown) [3-Amino-6-{4-[2-hydroxy-2-(4-pyridin-3-yl-phenyl)-ethylamino]-piperidin-1-yl}-4-propyl-thieno[2,3-b] pyridine-2-carboxylic acid amide] | ≤ 10 µM | < 1 µM | –
CCCc1cc(N2CCC(NCC(O)c3ccc(-c4nccs4)cc3)CC2)nc2sc(C(N)=O)c(N)c12 (stereo not shown) [3-Amino-6-{4-[2-hydroxy-2-(4-thiazol-2-yl-phenyl)-ethylamino]-piperidin-1-yl}-4-propyl-thieno[2,3-b]pyridine-2-carboxylic acid amide] | ≤ 10 µM | < 1 µM | –
NC(=O)c1sc2nc(N3CCC(NCC(O)c4ccc(-c5nccs5)cc4)CC3)cc(C(F)(F)F)c2c1N (stereo not shown) [3-Amino-6-{4-[2-hydroxy-2-(4-thiazol-2-yl-phenyl)-ethylamino]-piperidin-1-yl}-4-trifluoromethyl-thieno[2,3-b]pyridine-2-carboxylic acid amide] | ≤ 10 µM | < 1 µM | –
CCCc1cc(N2CCC(NCC(=O)Nc3cccc4ccccc34)CC2)nc2sc(C(N)=O)c(N)c12 [3-Amino-6-{4-[(naphthalen-1-ylcarbamoylmethyl)-amino]-piperidin-1-yl}-4-propyl-thieno[2,3-b] pyridine-2-carboxylic acid amide] | ≤ 10 µM | < 1 µM | –
COC(=O)c1ccc(/C=C/c2cc(N3CCC(N)CC3)nc3sc(C(N)=O)c(N)c23)cc1 [4-{(E)-2-[3-Amino-6-(4-amino-piperidin-1-yl)-2-carbamoyl-thieno[2,3-b]pyridin-4-yl]-vinyl}-benzoic acid methyl ester] | ≤ 10 µM | < 1 µM | –
CCCc1cc(N2CCC(NCC(O)c3ccc(NS(C)(=O)=O)cc3)CC2)nc2sc(C(N)=O)c(N)c12 (stereo not shown) [Example 12, 3-Amino-6-{4-[2-hydroxy-2-(4-methanesulfonylamino-phenyl)-ethylamino)-piperidin-1-yl]-4-propyl-thieno[2,3-b]pyridine-2-carboxylic acid amide] | – | – | 199 to 200 °C
CCCc1cc(N2CCC(NCC(=O)O)CC2)nc2sc(C(N)=O)c(N)c12 [[1-(3-Amino-2-carbamoyl-4-propyl-thieno[2,3-b]pyridin-6-yl)-piperidin-4-ylamino]-acetic acid] | ≤ 10 µM | < 1 µM | –
